Results on eleven compounds are retold here after article PMC12707263 (ACS Pharmacology & Translational Science, 2025).

One data set concerns OCI-Ly10 cells. Put plainly: Pairwise 10 × 10 matrix combination with venetoclax, Cell Titer Glo viability. The following applies: for synergistic cell killing when combined with venetoclax: ΔBlissSum. For orientation: ATP-based viability assays read luminescence as a measure of living cells.
For data set [1] the following is noted: reported values; ref not given; cited from earlier work.
In data set [2] the test system is 24 kinase targets associated with B-cell malignancy signaling cascades. Put plainly: HotSpot profile across the panel. The data set is classed as biochemical.
For another data set, the system named is REC-1 cells. Put plainly: Pairwise 10 × 10 matrix combination with venetoclax, Cell Titer Glo viability. The settings on record: venetoclax 10000 nM to 39 nM.
The next data set concerns HBL1 cells. Described as above. The settings on record: venetoclax 1000 nM to 3.9 nM.

“Also recorded” adds a separate entry of the source.

As to `CC#CC(=O)N1CCC[C@H]1c1nc(-c2ccc(C(=O)Nc3ccccn3)cc2)c2c(N)nccn12` [Acalabrutinib], the “synergistic cell killing when combined with venetoclax” value (shortened to “synergistic cell killing”) with OCI-Ly10 cells is “more focal in nature”. Besides, in data set [1], the “fraction unbound (FU)” value is on record as 2.5 % FU. Further, the “off-target profile across the 24 kinase panel” value in data set [2] is recorded as “most selective; also recorded: remarkably free of any additional off target activity”.

Take `CC#CC(=O)N[C@H]1CCCN(c2c(F)cc(C(N)=O)c3[nH]c(C)c(C)c23)C1` [Branebrutinib]: the “fraction unbound (FU)” value in data set [1] is 1.2 % FU. Further, the “off-target profile across the 24 kinase panel” value in data set [2] is listed as “remarkably free of any additional off target activity”.

As to `C=CC(=O)N1CCC(CNc2ncnc(N)c2-c2ccc(Oc3ccccc3)cc2)CC1` [Evobrutinib], the “off-target profile across the 24 kinase panel” value in data set [2] was “remarkably free of any additional off target activity”.

Turning to `C[C@H]1CN(C2COC2)CCN1c1ccc(Nc2cc(-c3ccnc(N4CCn5c(cc6c5CC(C)(C)C6)C4=O)c3CO)cn(C)c2=O)nc1` [Fenebrutinib], the “off-target profile across the 24 kinase panel” value in data set [2] is “most selective; also recorded: remarkably free of any additional off target activity”.

With `C=CC(=O)N1CCC[C@@H](n2nc(-c3ccc(Oc4ccccc4)cc3)c3c(N)ncnc32)C1` [Ibrutinib], the “off-target profile across the 24 kinase panel” value in data set [2] is “most promiscuous beyond BMX and BLK”.

In the case of `C=CC(=O)Nc1cccc(Oc2nc(Nc3ccc(N4CCN(C)CC4)cc3)nc3ccoc23)c1` [Poseltinib], the “synergistic cell killing” value in the data set with OCI-Ly10 cells is “more focal in nature”. For the same compound, the “off-target profile across the 24 kinase panel” value in data set [2] is “most promiscuous beyond BMX and BLK”.

`C=CC(=O)N(C)CCOc1c(N)ncnc1-c1cc(F)cc(NC(=O)c2ccc(C3CC3)cc2F)c1C` [Remibrutinib]: the “synergistic cell killing” value with OCI-Ly10 cells was “similar, broad synergistic cell killing across multiple concentration ranges”. Further, the “off-target profile across the 24 kinase panel” value in data set [2] is on record as “most selective; also recorded: remarkably free of any additional off target activity”.

With `CC(C)(/C=C(\C#N)C(=O)N1CCC[C@@H](n2nc(-c3ccc(Oc4ccccc4)cc3F)c3c(N)ncnc32)C1)N1CCN(C2COC2)CC1` [Rilzabrutinib], the “synergistic cell killing” value with OCI-Ly10 cells was “similar, broad synergistic cell killing across multiple concentration ranges”. Further, in data set [2], the “off-target profile across the 24 kinase panel” value is given as “remarkably free of any additional off target activity”.

Regarding `CC#CC(=O)N1CC[C@@H](n2c(=O)n(-c3ccc(Oc4ccccc4)cc3)c3c(N)ncnc32)C1` [Tirabrutinib], in data set [1], the “fraction unbound (FU)” value is 8.3 % FU. Also, the “off-target profile across the 24 kinase panel” value in data set [2] is on record as “most selective; also recorded: remarkably free of any additional off target activity”.

Take `CC1(C)CCC(CN2CCN(c3ccc(C(=O)NS(=O)(=O)c4ccc(NCC5CCOCC5)c([N+](=O)[O-])c4)c(Oc4cnc5[nH]ccc5c4)c3)CC2)=C(c2ccc(Cl)cc2)C1` [Venetoclax]: the “single agent activity (cytotoxicity)” value in the data set with OCI-Ly10 cells (venetoclax 1000 nM to 3.9 nM), in the data set with REC-1 cells and with HBL1 cells was “no single agent activity” in each case.

As for `C=CC(=O)N1CCC([C@@H]2CCNc3c(C(N)=O)c(-c4ccc(Oc5ccccc5)cc4)nn32)CC1` [Zanubrutinib], the “synergistic cell killing” value in the data set with OCI-Ly10 cells is reported as “similar, broad synergistic cell killing across multiple concentration ranges”. Also, the “fraction unbound (FU)” value in data set [1] was 6 % FU. Besides, the “off-target profile across the 24 kinase panel” value in data set [2] was “most promiscuous beyond BMX and BLK”.
